According to US10710986B2, “PD-1/PD-L1 inhibitors” (Gilead Sciences, Inc., priority 2018, dated 2020):

Molecular target: PD-1/PD-L1 (Homo sapiens (Human), UniProt Q9NZQ7)
Assay: PD-1/PD-L1 biochemical protein-protein interaction assay (ALPHA)
Settings: 0.3 nM His tagged PD-L1, 2.5 nM biotinylated Fc-PD-1, 60 minutes at 25° C., read-out: IC50 PD-L1-PD1

Sequence of PD-1/PD-L1 (Q9NZQ7 19-238): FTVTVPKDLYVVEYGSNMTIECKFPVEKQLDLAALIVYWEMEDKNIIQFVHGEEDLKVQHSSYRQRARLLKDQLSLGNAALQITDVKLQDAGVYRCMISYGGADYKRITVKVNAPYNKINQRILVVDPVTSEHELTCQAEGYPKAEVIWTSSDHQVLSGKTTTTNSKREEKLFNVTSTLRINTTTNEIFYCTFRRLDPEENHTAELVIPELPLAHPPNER

Row | IC50 | Structure (SMILES)
1 | 0.178 nM | COc1nc(-c2cccc(-c3cccc(-c4cnc(CN[C@@H](C)[C@H]5CCC(=O)N5)c(OC)n4)c3Cl)c2Cl)cnc1CNC[C@@H]1CCC(=O)N1 [compound 598]
2 | 0.174 nM | COc1nc(-c2cccc(-c3cccc(-c4cnc(CN[C@H](C)[C@@H]5CCC(=O)N5)c(OC)n4)c3Cl)c2Cl)cnc1CNC[C@@H]1CCC(=O)N1 [compound 599]
3 | 0.064 nM | COc1nc(-c2cccc(-c3cccc(-c4cnc(CN[C@H]5C[C@@](O)(CO)C5)c(OC)n4)c3Cl)c2Cl)cnc1CNC[C@@H]1CCC(=O)N1 [compound 600]
4 | 0.196 nM | COc1nc(-c2cccc(-c3cccc(-c4cnc(CN[C@H](C)[C@@H]5CCC(=O)N5)c(OC)n4)c3Cl)c2Cl)cnc1CN[C@H](C)[C@@H]1CCC(=O)N1 [compound 601]
5 | 0.145 nM | COc1nc(-c2cccc(-c3cccc(-c4cnc5c(CN6CCC7(CCC(=O)N7)C6)cn(C)c5n4)c3Cl)c2Cl)cnc1CNC[C@H]1CCC(=O)N1 (stereo partly shown) [compound 602]
6 | 0.073 nM | COc1nc(-c2cccc(-c3cccc(-c4cnc5c(CNC[C@H]6C[C@H](O)C6)cn(C)c5n4)c3Cl)c2Cl)cnc1CNC[C@H]1CCC(=O)N1 [compound 603]
7 | 0.064 nM | COc1nc(-c2cccc(-c3cccc(-c4cnc5c(CN6CC7(C6)CN(C(C)=O)C7)cn(C)c5n4)c3Cl)c2Cl)cnc1CNC[C@H]1CCC(=O)N1 [compound 604]
8 | 0.113 nM | COc1nc(-c2cccc(-c3cccc(-c4cnc5c(CN6CC7(CNC(=O)C7)C6)cn(C)c5n4)c3Cl)c2Cl)cnc1CNC[C@H]1CCC(=O)N1 [compound 605]
9 | 0.077 nM | COc1nc(-c2cccc(-c3cccc(-c4cnc5c(CNC[C@@H]6CCC(=O)N6)cn(C)c5n4)c3Cl)c2Cl)cnc1CNC[C@H]1CCC(=O)N1 [compound 606]
10 | 0.064 nM | COc1nc(-c2cccc(-c3cccc(-c4cnc5c(CN6CC7(CNC(=O)C7)C6)cn(C)c5n4)c3Cl)c2Cl)cnc1CN1CC2(CNC(=O)C2)C1 [compound 607]
11 | 0.064 nM | CCn1cc(CN2CC3(C2)CN(C(C)=O)C3)c2ncc(-c3cccc(-c4cccc(-c5cnc(CN6CC7(C6)CN(C(C)=O)C7)c(OC)n5)c4Cl)c3Cl)nc21 [compound 608]
12 | 0.079 nM | CCn1cc(CN2CC3(CNC(=O)C3)C2)c2ncc(-c3cccc(-c4cccc(-c5cnc(CN6CC7(CNC(=O)C7)C6)c(OC)n5)c4Cl)c3Cl)nc21 [compound 609]
13 | 0.313 nM | CCn1cc(CN2CC3(CCC(=O)N3)C2)c2ncc(-c3cccc(-c4cccc(-c5cnc(CN6CC7(CCC(=O)N7)C6)c(OC)n5)c4Cl)c3Cl)nc21 [compound 610]
14 | 0.21 nM | CCn1cc(CN2CC(O)C2)c2ncc(-c3cccc(-c4cccc(-c5cnc(CN6CC(O)C6)c(OC)n5)c4Cl)c3Cl)nc21 [compound 611]
15 | 0.064 nM | COc1nc(-c2cccc(-c3cccc(-c4cnc5c(CN6CC7(C6)CN(C(C)=O)C7)cn(C)c5n4)c3Cl)c2Cl)cnc1CN1CC2(C1)CN(C(C)=O)C2 [compound 612]
16 | 0.182 nM | COc1nc(-c2cccc(-c3cccc(-c4cnc5c(CN6CC7(CCC(=O)N7)C6)cn(C)c5n4)c3Cl)c2Cl)cnc1CN1CC2(CCC(=O)N2)C1 [compound 613]
17 | 0.079 nM | COc1nc(-c2cccc(-c3cccc(-c4cnc(CNC[C@@H]5CCC(=O)N5)c(OC)n4)c3F)c2Cl)ccc1CNC[C@@H]1CCC(=O)N1 [compound 614]
18 | 0.291 nM | COc1nc(-c2cccc(-c3cccc(-c4cnc(CNCCO)c(OC)n4)c3F)c2Cl)ccc1CNCCO [compound 615]
19 | 0.069 nM | COc1nc(-c2cccc(-c3cccc(-c4cnc(CN5CC[C@@H](CO)C5)c(OC)n4)c3F)c2Cl)ccc1CN1CC[C@@H](CO)C1 [compound 616]
20 | 0.064 nM | COc1nc(-c2cccc(-c3cccc(-c4cnc(CN5CC6(C5)CN(C(C)=O)C6)c(OC)n4)c3F)c2Cl)ccc1CN1CC2(C1)CN(C(C)=O)C2 [compound 617]
21 | 0.064 nM | COc1nc(-c2cccc(-c3cccc(-c4cnc(CN5CC6(CCC(=O)N6)C5)c(OC)n4)c3F)c2Cl)ccc1CN1CC2(CCC(=O)N2)C1 [compound 618]
22 | 0.178 nM | COc1nc(-c2cccc(-c3cccc(-c4cnc(CN5CC(O)C5)c(OC)n4)c3F)c2Cl)ccc1CN1CC(O)C1 [compound 619]
23 | 0.101 nM | COc1nc(-c2cccc(-c3cccc(-c4cnc(CNC[C@@H]5CCC(=O)N5)c(OC)n4)c3Cl)c2Cl)cnc1CNCCOc1ccccn1 [compound 620]
24 | 1.05 nM | COc1nc(-c2cccc(-c3cccc(-c4cnc(CN5CC(C)(N)C5)c(OC)n4)c3Cl)c2Cl)cnc1CN1CC(C)(N)C1 [compound 621]
25 | 0.26 nM | COc1nc(-c2cccc(-c3cccc(-c4cnc(CN5CC(C)(N)C5)c(OC)n4)c3Cl)c2Cl)cnc1CNC[C@@H]1CCC(=O)N1 [compound 622]
26 | 0.152 nM | COc1nc(-c2cccc(-c3cccc(-c4cnc(CN5CC[C@H](CO)C5)c(OC)n4)c3Cl)c2Cl)cnc1CN1CC[C@H](CO)C1 [compound 624]
27 | 0.074 nM | COc1nc(-c2cccc(-c3cccc(-c4cnc(CN5CC[C@H](CO)C5)c(OC)n4)c3Cl)c2Cl)cnc1CNC[C@@H]1CCC(=O)N1 [compound 625]
28 | 0.064 nM | COc1nc(-c2cccc(-c3cccc(-c4cnc(CN5CC[C@@H](CO)C5)c(OC)n4)c3Cl)c2Cl)cnc1CN1CC[C@@H](CO)C1 [compound 626]

Row | IC50 | Structure (SMILES)
29 | 0.081 nM | COc1nc(-c2cccc(-c3cccc(-c4cnc(CN5CC[C@@H](CO)C5)c(OC)n4)c3Cl)c2Cl)cnc1CNC[C@@H]1CCC(=O)N1 [compound 627]
30 | 0.064 nM | COc1nc(-c2cccc(-c3cccc(-c4cc(C)c(CNC[C@@H]5CCC(=O)N5)c(OC)n4)c3Cl)c2Cl)cnc1CNC[C@@H]1CCC(=O)N1 [compound 628]
31 | 0.083 nM | COc1nc(-c2cccc(-c3cccc(-c4cnc(CN5CC(C)(O)C5)c(OC)n4)c3Cl)c2Cl)cnc1CN1CC(O)C1 [compound 629]
32 | 0.437 nM | COc1nc(-c2cccc(-c3cccc(-c4cnc(CN)c(OC)n4)c3Cl)c2Cl)ccc1CNC[C@@H]1CCC(=O)N1 [compound 630]
33 | 0.064 nM | COc1nc(-c2cccc(-c3cccc(-c4cnc(CN5CC(C)(O)C5)c(OC)n4)c3Cl)c2Cl)ccc1CNC[C@@H]1CCC(=O)N1 [compound 631]
34 | 0.172 nM | COc1nc(-c2cccc(-c3cccc(-c4cnc(CN5CC6(C5)CN(C(C)=O)C6)c(OC)n4)c3Cl)c2Cl)ccc1CNC[C@@H]1CCC(=O)N1 [compound 632]
35 | 0.064 nM | COc1nc(-c2cccc(-c3cccc(-c4cnc(CN5CC6(CNC(=O)C6)C5)c(OC)n4)c3Cl)c2Cl)ccc1CNC[C@@H]1CCC(=O)N1 [compound 633]
36 | 0.064 nM | COc1nc(-c2cccc(-c3cccc(-c4cnc(CN5CCC(CO)(CO)C5)c(OC)n4)c3Cl)c2Cl)cnc1CN1CCC(CO)(CO)C1 [compound 634]
37 | 0.098 nM | COc1nc(-c2cccc(-c3cccc(-c4cnc(CN5CC(C(C)(C)O)C5)c(OC5CC5)n4)c3Cl)c2Cl)ccc1CN1CC(C(C)(C)O)C1 [compound 635]
38 | 0.12 nM | COc1nc(-c2cccc(-c3cccc(-c4cnc(CN5CC6(CCC(=O)N6)C5)c(OC5CC5)n4)c3Cl)c2Cl)ccc1CN1CC2(CCC(=O)N2)C1 [compound 636]
39 | 0.134 nM | COc1nc(-c2cccc(-c3cccc(-c4cnc(CN5CC6(CNC(=O)C6)C5)c(OC5CC5)n4)c3Cl)c2Cl)ccc1CN1CC2(CNC(=O)C2)C1 [compound 637]
40 | 0.079 nM | COc1nc(-c2cccc(-c3cccc(-c4cnc(CNC[C@@H]5CCC(=O)N5)c(OC5CC5)n4)c3Cl)c2Cl)ccc1CNC[C@@H]1CCC(=O)N1 [compound 638]
41 | 0.066 nM | COc1nc(-c2cccc(-c3cccc(-c4cnc(CN[C@H]5C[C@@H](C(N)=O)C5)c(OC)n4)c3Cl)c2Cl)ccc1CNC[C@@H]1CNC(=O)C1 [compound 639]
42 | 0.167 nM | COc1nc(-c2cccc(-c3cccc(-c4cnc(CN[C@H]5CCC[C@H]5O)c(OC)n4)c3Cl)c2Cl)ccc1CNC[C@@H]1CNC(=O)C1 [compound 640]
43 | 0.064 nM | COc1nc(-c2cccc(-c3cccc(-c4cnc(C5=NCCN5)c(OC)n4)c3Cl)c2Cl)ccc1CN1CC2(CCC(=O)N2)C1 [compound 641]
44 | 0.064 nM | COc1nc(-c2cccc(-c3cccc(-c4cnc(C5=NCCN5)c(OC)n4)c3Cl)c2Cl)ccc1CN1CC(C)(O)C1 [compound 642]
45 | 0.064 nM | COc1nc(-c2cccc(-c3cccc(-c4cnc(C5=NC[C@H](C)N5)c(OC)n4)c3Cl)c2Cl)ccc1CNC[C@@H]1CCC(=O)N1 [compound 643]
46 | 0.093 nM | COc1nc(-c2cccc(-c3cccc(-c4cnc(C5=NC[C@@H](C)N5)c(OC)n4)c3Cl)c2Cl)ccc1CNC[C@@H]1CCC(=O)N1 [compound 644]
47 | 0.064 nM | COc1nc(-c2cccc(-c3cccc(-c4cnc(C5=NCCN5)c(OC)n4)c3Cl)c2Cl)ccc1CNC[C@@H]1CCC(=O)N1 [compound 645]
48 | 0.064 nM | COc1nc(-c2cccc(-c3cccc(-c4cnc(C5=NC[C@H](C)N5)c(OC)n4)c3Cl)c2Cl)cnc1CNC[C@@H]1CCC(=O)N1 [compound 646]
49 | 0.064 nM | COc1nc(-c2cccc(-c3cccc(-c4cnc(C5=NC[C@@H](C)N5)c(OC)n4)c3Cl)c2Cl)cnc1CNC[C@@H]1CCC(=O)N1 [compound 647]
50 | 0.08 nM | COc1nc(-c2cccc(-c3cccc(-c4cnc(CN[C@H]5CC[C@@H](CO)C5)c(OC)n4)c3Cl)c2Cl)cnc1CNC[C@@H]1CCC(=O)N1 [compound 648]
51 | 0.128 nM | COc1nc(-c2cccc(-c3cccc(-c4cnc(CN5CC6(CCC(=O)N6)C5)c(OC)n4)c3Cl)c2F)ccc1CN1CC2(CCC(=O)N2)C1 [compound 649]
52 | 0.064 nM | COc1nc(-c2cccc(-c3cccc(-c4cc(C)c(CN5CC6(CCC(=O)N6)C5)c(OC)n4)c3F)c2Cl)cnc1CN1CC2(CCC(=O)N2)C1 [compound 650]
53 | 0.064 nM | COc1nc(-c2cccc(-c3cccc(-c4cc(C)c(CN5CC6(CNC(=O)C6)C5)c(OC)n4)c3F)c2Cl)cnc1CN1CC2(CNC(=O)C2)C1 [compound 651]
54 | 0.12 nM | COc1nc(-c2cccc(-c3cccc(-c4cc(C)c(CNC[C@H]5C[C@H](O)C5)c(OC)n4)c3Cl)c2Cl)cnc1CNC[C@@H]1CCC(=O)N1 [compound 652]
55 | 0.064 nM | COc1nc(-c2cccc(-c3cccc(-c4cc(C)c(CN5CC6(C5)CN(C(C)=O)C6)c(OC)n4)c3Cl)c2Cl)cnc1CNC[C@@H]1CCC(=O)N1 [compound 653]
